Among the data in the supplement of paper PMC10307832 are relative viability values, retold here.

What all share (assay): relative viability (nuclei count vs DMSO), 5 days (fraction); higher = more cells survive
Compound in test [1]: C1CC1C(=O)NC2=NNC3=C2C=CC(=C3)C4=CC(=CC=C4)C(=O)NC5CC5 [XMD13-2] + COc1cccc2cc(-c3nc([C@H]4CC[C@H](C(=O)O)CC4)n4ncnc(N)c34)[nH]c12 [OSI-027] (partner 0.5 µM)
A digest of the protocol:
(§1)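 Lung cancer cell lines, seeded in 1536-well plates, were treated the following day by pin tool with a single drug or with five library-drug doses (not always all listed) in √10 steps on top of a fixed anchor-drug dose. Cells were fixed and nuclei stained in one step after 5 days, and nuclei were counted. Relative viability is the nuclei count for treated wells divided by that for vehicle wells, reported as medians of duplicate plates.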

Compound in test [2]: C1CC1C(=O)NC2=NNC3=C2C=CC(=C3)C4=CC(=CC=C4)C(=O)NC5CC5 [XMD13-2] + Cc1cc(Nc2cc(N3CCN(C)CC3)nc(Sc3ccc(NC(=O)C4CC4)cc3)n2)n[nH]1 [Tozasertib] (partner 0.1 µM)
A digest of the protocol:
as §1

Compound in test [3]: Cc1nc(Nc2ncc(C(=O)Nc3c(C)cccc3Cl)s2)cc(N2CCN(CCO)CC2)n1 [Dasatinib] + Cc1cc(Nc2cc(N3CCN(C)CC3)nc(Sc3ccc(NC(=O)C4CC4)cc3)n2)n[nH]1 [Tozasertib] (partner 0.1 µM)
A digest of the protocol:
as §1

Compound in test [4]: Cc1nc(Nc2ncc(C(=O)Nc3c(C)cccc3Cl)s2)cc(N2CCN(CCO)CC2)n1 [Dasatinib] + Cc1nc(NC(=O)N2CCC[C@H]2C(N)=O)sc1-c1ccnc(C(C)(C)C(F)(F)F)c1 [Alpelisib] (partner 2 µM)
A digest of the protocol: as §1

For NCI-H727, the relative viability in test [1] (first compound 0.05 µM) came out at 0.543; in test [1] (first compound 0.1581 µM), 0.68; in test [1] (first compound 0.5 µM), 0.573; in test [1] (first compound 1.581 µM) it was 0.54; in test [1] (first compound 5 µM) it was 0.664; in test [2] (first compound 0.05 µM) it was 0.577. For the same cell line, the relative viability turned out to be 0.652 in test [2] (first compound 0.1581 µM); 0.666 in test [2] (first compound 0.5 µM); 0.617 in test [2] (first compound 1.581 µM); 0.627 in test [2] (first compound 5 µM); 0.607 in test [3] (first compound 0.005 µM); 0.523 in test [3] (first compound 0.01581 µM). Further, the relative viability in test [3] (first compound 0.05 µM) came to 0.606; in test [3] (first compound 0.1581 µM), 0.379; in test [3] (first compound 0.5 µM), 0.185; in test [4] (first compound 0.005 µM), 0.453; in test [4] (first compound 0.01581 µM) it was 0.375; in test [4] (first compound 0.05 µM), 0.397. Also, the relative viability amounted to 0.219 in test [4] (first compound 0.1581 µM) and 0.234 in test [4] (first compound 0.5 µM).

Turning to NCI-H358, the relative viability was 0.97 in test [1] (first compound 0.05 µM); 0.686 in test [1] (first compound 0.1581 µM); 0.848 in test [1] (first compound 0.5 µM); 0.726 in test [1] (first compound 1.581 µM); 0.442 in test [1] (first compound 5 µM); 0.126 in test [2] (first compound 0.05 µM). The relative viability in test [2] (first compound 0.1581 µM) is 0.121; in test [2] (first compound 0.5 µM), 0.102; in test [2] (first compound 1.581 µM), 0.114; in test [2] (first compound 5 µM), 0.0991; in test [3] (first compound 0.005 µM), 0.0888; in test [3] (first compound 0.01581 µM), 0.0863. Besides, the relative viability in test [3] (first compound 0.05 µM) amounted to 0.101; in test [3] (first compound 0.1581 µM), 0.084; in test [3] (first compound 0.5 µM) it was 0.0689; in test [4] (first compound 0.005 µM) it was 0.726; in test [4] (first compound 0.01581 µM) it was 0.585; in test [4] (first compound 0.05 µM), 0.458. For the same cell line, the relative viability was found to be 0.24 in test [4] (first compound 0.1581 µM) and 0.204 in test [4] (first compound 0.5 µM).

As to NCI-H1437, the relative viability in test [1] (first compound 0.05 µM) was determined as 0.958; in test [1] (first compound 0.1581 µM) it was 0.929; in test [1] (first compound 0.5 µM) it was 0.885; in test [1] (first compound 1.581 µM) it was 0.873; in test [1] (first compound 5 µM) it was 0.985; in test [2] (first compound 0.05 µM), 0.427. The relative viability in test [2] (first compound 0.1581 µM) was determined as 0.438; in test [2] (first compound 0.5 µM) it was 0.411; in test [2] (first compound 1.581 µM), 0.395; in test [2] (first compound 5 µM) it was 0.404; in test [3] (first compound 0.005 µM) it was 0.431; in test [3] (first compound 0.01581 µM), 0.38. For the same cell line, the relative viability in test [3] (first compound 0.05 µM) amounted to 0.394; in test [3] (first compound 0.1581 µM), 0.32; in test [3] (first compound 0.5 µM), 0.314; in test [4] (first compound 0.005 µM) it was 1.03; in test [4] (first compound 0.01581 µM), 0.893; in test [4] (first compound 0.05 µM) it was 1.03. Also, the relative viability in test [4] (first compound 0.1581 µM) stood at 0.735; in test [4] (first compound 0.5 µM), 0.513.

For NCI-H441, the relative viability in test [1] (first compound 0.05 µM) is 0.682; in test [1] (first compound 0.1581 µM), 0.777; in test [1] (first compound 0.5 µM) it was 0.578; in test [1] (first compound 1.581 µM) it was 0.485; in test [1] (first compound 5 µM), 0.588; in test [2] (first compound 0.05 µM) it was 0.808. Further, the relative viability in test [2] (first compound 0.1581 µM) came to 0.652; in test [2] (first compound 0.5 µM), 0.608; in test [2] (first compound 1.581 µM) it was 0.591; in test [2] (first compound 5 µM), 0.53; in test [3] (first compound 0.005 µM), 0.594; in test [3] (first compound 0.01581 µM), 0.539. In addition, the relative viability came to 0.625 in test [3] (first compound 0.05 µM); 0.467 in test [3] (first compound 0.1581 µM); 0.375 in test [3] (first compound 0.5 µM); 0.878 in test [4] (first compound 0.005 µM); 0.874 in test [4] (first compound 0.01581 µM); 0.574 in test [4] (first compound 0.05 µM). Besides, the relative viability was 0.355 in test [4] (first compound 0.1581 µM) and 0.218 in test [4] (first compound 0.5 µM).

For the cell line EMC-BAC-2, the relative viability in test [1] (first compound 0.05 µM) came out at 0.394; in test [1] (first compound 0.1581 µM), 0.4; in test [1] (first compound 0.5 µM), 0.383; in test [1] (first compound 1.581 µM), 0.366; in test [1] (first compound 5 µM) it was 0.358; in test [2] (first compound 0.05 µM) it was 0.284. Further, the relative viability in test [2] (first compound 0.1581 µM) stood at 0.28; in test [2] (first compound 0.5 µM), 0.19; in test [2] (first compound 1.581 µM), 0.273; in test [2] (first compound 5 µM), 0.267; in test [3] (first compound 0.005 µM), 0.271; in test [3] (first compound 0.01581 µM), 0.205. The relative viability in test [3] (first compound 0.05 µM) was 0.226; in test [3] (first compound 0.1581 µM), 0.179; in test [3] (first compound 0.5 µM), 0.164; in test [4] (first compound 0.005 µM) it was 0.632; in test [4] (first compound 0.01581 µM), 0.478; in test [4] (first compound 0.05 µM), 0.466. Further, the relative viability in test [4] (first compound 0.1581 µM) was 0.285; in test [4] (first compound 0.5 µM), 0.194.

For NCI-H647, the relative viability in test [1] (first compound 0.05 µM) amounted to 0.779; in test [1] (first compound 0.1581 µM), 0.781; in test [1] (first compound 0.5 µM) it was 0.669; in test [1] (first compound 1.581 µM), 0.59; in test [1] (first compound 5 µM), 0.508; in test [2] (first compound 0.05 µM), 0.585. The relative viability was 0.265 in test [2] (first compound 0.1581 µM); 0.176 in test [2] (first compound 0.5 µM); 0.229 in test [2] (first compound 1.581 µM); 0.135 in test [2] (first compound 5 µM); 0.265 in test [3] (first compound 0.005 µM); 0.288 in test [3] (first compound 0.01581 µM). For the same cell line, the relative viability was 0.128 in test [3] (first compound 0.05 µM); 0.0973 in test [3] (first compound 0.1581 µM); 0.0474 in test [3] (first compound 0.5 µM); 0.779 in test [4] (first compound 0.005 µM); 0.419 in test [4] (first compound 0.01581 µM); 0.319 in test [4] (first compound 0.05 µM). In addition, the relative viability in test [4] (first compound 0.1581 µM) amounted to 0.166; in test [4] (first compound 0.5 µM), 0.146.

Consider CAL-12T, for which the relative viability stood at 0.803 in test [1] (first compound 0.05 µM); 0.585 in test [1] (first compound 0.1581 µM); 0.549 in test [1] (first compound 0.5 µM); 0.426 in test [1] (first compound 1.581 µM); 0.577 in test [1] (first compound 5 µM); 0.344 in test [2] (first compound 0.05 µM). Also, the relative viability amounted to 0.41 in test [2] (first compound 0.1581 µM); 0.307 in test [2] (first compound 0.5 µM); 0.31 in test [2] (first compound 1.581 µM); 0.368 in test [2] (first compound 5 µM); 0.386 in test [3] (first compound 0.005 µM); 0.346 in test [3] (first compound 0.01581 µM). The relative viability came out at 0.297 in test [3] (first compound 0.05 µM); 0.228 in test [3] (first compound 0.1581 µM); 0.112 in test [3] (first compound 0.5 µM); 1.15 in test [4] (first compound 0.005 µM); 1.03 in test [4] (first compound 0.01581 µM); 1.62 in test [4] (first compound 0.05 µM). In addition, the relative viability was found to be 1.13 in test [4] (first compound 0.1581 µM) and 0.355 in test [4] (first compound 0.5 µM).

With NCI-H1792, the relative viability came out at 0.772 in test [1] (first compound 0.05 µM); 0.813 in test [1] (first compound 0.1581 µM); 0.696 in test [1] (first compound 0.5 µM); 0.914 in test [1] (first compound 1.581 µM); 0.669 in test [1] (first compound 5 µM); 0.73 in test [4] (first compound 0.005 µM). In addition, the relative viability came out at 0.431 in test [4] (first compound 0.01581 µM), 0.532 in test [4] (first compound 0.05 µM), 0.389 in test [4] (first compound 0.1581 µM) and 0.153 in test [4] (first compound 0.5 µM).
